This note sets out measurements from US7901498B2, “Trisazo compound, ink composition, printing method and colored product” (Nippon Kayaku Kabushiki Kaisha, priority 2007, dated 2011).

Data set [1] is described as follows: Ozone gas fastness test of inkjet-printed images (coloring matter residual rate). The format is physicochemical. Conditions: 24 hours, ozone 10 ppm; for Ozone gas fastness: 60% RH, 24° C. The method, then: (§1) The components described below were mixed to obtain a black ink composition of the present invention, and then foreign substances were filtered off using a 0.45 μm membrane filter. Hereinafter, the obtained ink composition was referred to as “ink”.
(§2) In addition, ion-exchanged water was used as water. In ink preparation, the pH of ink was adjusted to pH 7 to 9 with sodium hydroxide and after that, ion-exchanged water was added to make the total amount 100 parts.
(§3) Using each ink obtained in the above manner, inkjet printing was performed on three kinds of information recording sheet (inkjet special paper), glossy paper 1 [trade name: Professional Photopaper PR-101, manufactured by Canon Inc.], glossy paper 2 [trade name: Photo Paper CRISPIA (highly glossy), manufactured by Seiko-Epson Corporation], glossy paper 3 [trade name: Advanced Photo Paper (glossy), manufactured by Hewlett-Packard Development Company] by an inkjet printer (trade name: PIXUS® iP4100) manufactured by Canon Inc.
(§4) In printing, an image pattern was made so that several gradations in reflection density were obtained, and black printed matter was obtained.
(§5) Using a colorimeter (trade name: SpectroEye®) manufactured by GRETAG-MACBETH, change in printed image density was measured by measuring, after the test, the gradation part where the reflection density, D value, was nearest to 1.0 on each printed image before the test.
Using an ozone weatherometer manufactured by Suga Test Instruments Co., Ltd., each printed image was left for 24 hours under the conditions of an ozone concentration of 10 ppm, a humidity of 60% RH and a temperature of 24° C. After completion of the test, each printed image was measured by the above colorimeter and the coloring matter residual rate was calculated from the formula (reflection density after test/reflection density before test)×100 (%). The test results are evaluated according to the following criteria. • ◯: Residual rate is 70% or more. • Δ: Residual rate is 60% or more and less than 70%. • ×: Residual rate is less than 60%. 2) Light Fastness Test

Data set [2] in a line: Light fastness test of inkjet-printed images, xenon weatherometer (coloring matter residual rate). The format is physicochemical. As to conditions: for Light fastness: 96 hours, illuminance 100,000 lux, 60% RH, 24° C.; for coloring matter residual rate, light fastness test: 96 hours xenon. The procedure:
as §1, §2, §3, §4, §5
Using a low temperature xenon weatherometer (trade name: XL75) manufactured by Suga Test Instruments Co., Ltd., each printed image described above was irradiated for 96 hours under the conditions of a luxilluminance of 100,000, a humidity of 60% RH and a temperature of 24° C. and then measured using the above colorimeter, and the coloring matter residual rate of each image was calculated from the formula (reflection density after test/reflection density before test)×100 (%). The test results are evaluated according to the following criteria. • ◯: Residual rate is 85% or more. • Δ: Residual rate is 80% or more and less than 85%. • ×: Residual rate is less than 80%.

Where [3] appears, read: Glossy paper 3 (Advanced Photo Paper, Hewlett-Packard).
[4] abbreviates: Glossy paper 1 (Professional Photopaper PR-101, Canon).
Setting [5] is: Glossy paper 2 (Photo Paper CRISPIA, Seiko-Epson).

Regarding `O=C(O)c1cc(S(=O)(=O)O)ccc1N=Nc1cc(OCCO)c(N=Nc2c(S(=O)(=O)O)cc3c(S(=O)(=O)O)c(N=Nc4c(C(=O)O)nn(-c5ccc(S(=O)(=O)O)cc5)c4O)ccc3c2O)cc1OCCO` [Comparative Example 1, reference compound], in data set [1] (on any glossy paper (1, 2, 3)), the “coloring matter residual rate, ozone gas fastness test” value is “less than 60%”. Further, in data set [2] (setting [3]), the Light fastness result was “Δ (Residual rate is 80% or more and less than 85%.)”. Also, the “coloring matter residual rate, light fastness test” value in data set [2] (glossy paper 1) and in data set [2] (glossy paper 2) was “less than 80%” in each case.

Turning to `CS(=O)(=O)O.Cc1cc(N=Nc2c(S(=O)(=O)O)cc3c(S(=O)(=O)O)c(N=Nc4c(C)c(C#N)c5nc6ccccc6n5c4O)ccc3c2O)c(OCCCS(=O)(=O)O)cc1N=Nc1nnc(SCCS(=O)(=O)O)s1` [Example 10], the Ozone gas fastness entry in data set [1] (setting [4]), in data set [1] (setting [5]) and in data set [1] (setting [3]) was “◯ (Residual rate is 70% or more.)” each time. The Light fastness result is “◯ (Residual rate is 85% or more.)” in data set [2] (setting [4]); “Δ (Residual rate is 80% or more and less than 85%.)” in data set [2] (setting [5]); “◯ (Residual rate is 85% or more.)” in data set [2] (setting [3]).

As to `CS(=O)(=O)O.Cc1cc(N=Nc2c(S(=O)(=O)O)cc3c(S(=O)(=O)O)c(N=Nc4c(C)c(C#N)c5nc6ccccc6n5c4O)ccc3c2O)c(OCCCS(=O)(=O)O)cc1N=Nc1nc2c(S(=O)(=O)O)cc(S(=O)(=O)O)cc2s1` [Example 13], the Ozone gas fastness result in data set [1] (setting [4]), in data set [1] (setting [5]) and in data set [1] (setting [3]) was “◯ (Residual rate is 70% or more.)” throughout. The Light fastness result in data set [2] (setting [4]) is “Δ (Residual rate is 80% or more and less than 85%.)”; in data set [2] (setting [5]) it was “◯ (Residual rate is 85% or more.)”; in data set [2] (setting [3]), “◯ (Residual rate is 85% or more.)”.

In the case of `CS(=O)(=O)O.Cc1cc(N=Nc2c(S(=O)(=O)O)cc3c(S(=O)(=O)O)c(N=Nc4c(C)c(C#N)c5nc6ccccc6n5c4O)ccc3c2O)c(OCCCS(=O)(=O)O)cc1N=Nc1nc2c(S(=O)(=O)O)cc(S(C)(=O)=O)cc2s1` [Example 14], the Ozone gas fastness entry in data set [1] (setting [4]), in data set [1] (setting [5]) and in data set [1] (setting [3]) was “◯ (Residual rate is 70% or more.)” throughout. Besides, the Light fastness result in data set [2] (setting [4]), in data set [2] (setting [5]) and in data set [2] (setting [3]) was “◯ (Residual rate is 85% or more.)” throughout.
